Results published in patent US12371464B2, “Polypeptides and uses thereof” (MEDIMMUNE LIMITED, priority 2020, dated 2025).
Numbered stars: 1 amine (or outer) side, 2 acyl side, 3 side chain; on linkers, the order of the positions; unused ones are H or OH. Bridge positions count the residues as written; N and C are the ends. Side chains are listed from the residue outwards. Peptide text beside a SMILES is read from it. * marks the point of attachment. C20 diacid = O=C(O)CCCCCCCCCCCCCCCCCCC(=O)*; γGlu = O=C(O)[C@H](CCC(=O)[*:2])N[*:1]

Columns and labels:
[1] = biological target: T1, rat calcitonin receptor (rat CTR) (Rattus norvegicus, UniProt P32214); assay: cAMP production in HEK cells with stable recombinant expression of rat calcitonin receptor (rat CTR); format: cell-based; details: cAMP HTRF, assay buffer with 0.1% BSA, 30 minutes
T1 construct: expressed in transfected cells
T1 sequence (P32214 25-516): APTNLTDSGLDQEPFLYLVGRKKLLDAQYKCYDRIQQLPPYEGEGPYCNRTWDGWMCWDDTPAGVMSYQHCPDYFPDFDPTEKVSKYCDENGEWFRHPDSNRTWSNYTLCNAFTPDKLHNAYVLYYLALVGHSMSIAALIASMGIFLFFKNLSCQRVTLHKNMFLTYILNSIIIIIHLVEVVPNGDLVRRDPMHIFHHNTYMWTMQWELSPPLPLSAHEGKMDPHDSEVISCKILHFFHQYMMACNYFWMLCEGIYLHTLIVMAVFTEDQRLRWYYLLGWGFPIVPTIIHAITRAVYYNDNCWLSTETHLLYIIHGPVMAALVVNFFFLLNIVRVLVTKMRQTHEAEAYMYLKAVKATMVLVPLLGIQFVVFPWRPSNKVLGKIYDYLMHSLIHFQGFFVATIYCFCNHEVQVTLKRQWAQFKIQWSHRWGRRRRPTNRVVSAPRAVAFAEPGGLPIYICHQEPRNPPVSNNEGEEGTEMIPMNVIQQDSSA
Procedure: The functional activities of lipidated pramlintide analogue peptides, such as cAMP production, were tested in 1321N1 cell line with stable recombinant expression of human calcitonin receptor (hCTR) or human amylin receptor (calcitonin receptor co-expressed with receptor activity modifying protein, RAMP3) (hAMYR3) or HEK cells with stable recombinant expression of rat calcitonin receptor (rat CTR) or rat amylin receptor (calcitonin receptor co-expressed with receptor activity modifying protein, RAMP3) (Rat AMYR3). […]
The test peptide stock was prepared in DMSO and diluted in assay buffer to reach stated concentrations and transferred in duplicates into a 384-black shallow well microtitre assay plate (Corning #3676). Cells were added to the assay plate, incubated at room temperature for 30 minutes and the CAMP level measured using CAMP dynamic 2 HTRF kit (Cisbio, Cat #62AM4PEJ), following the two step protocol as per manufacturer's recommendations. The plates were read on an Envision (Perkin Elmer) using excitation wavelength of 320 nm and emission wavelengths of 620 nm & 665 nm.
Data was transformed to % Delta F as described in the manufacturer's guidelines and analyzed as percent activation of maximal amylin or calcitonin effect by 4-parameter logistic fit to determine EC50 values. […]

[2] = Thioflavin T fibrillation assay; format: physicochemical; details: 1 mg/mL in 25 mM sodium acetate buffer pH 4.0, 37° C., 6 days, orbital shaking; >144 h = no increase
Outline: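 Peptides at 1 mg/mL in 25 mM sodium acetate pH 4.0 were mixed with ThT (0.25 mM stock) and held 6 days at 37 °C with intermittent orbital shaking at 500–750 rpm. Fluorescence (ex 444/em 480 nm) was read every 30 min, with buffer baseline correction and 5 replicates. Value: mean time to a detectable fluorescence increase.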

lean rats = assay: Rat acute food intake study; format: in vivo, Sprague Dawley rats; details: 20 nmol/kg subcutaneously
in vivo = details: male, Sprague-Dawley, rat, 20 nmol/kg
Procedure: PK studies were performed to determine the half-life (T1/2) of test peptides. T1/2 describes the time taken for the maximum plasma concentration (Cmax) of a test substance to halve its steady-state concentration when in circulation.
The animals were 6-8 weeks old with body weights of 200-300 g on the dosing date. The animals were housed in a 12-hour light/12-hour dark cycle environment and were fasted overnight before dosing. The body weight of the animals were recorded before dosing, 24 h and 48 h post dosing.
Test articles were administered at 20 nmol/kg. Blood samples were collected from each animal via Jugular vein.
The blood samples were transferred into eppendorf low binding tube containing K2EDTA. Above 0.150 mL blood were collected at each time point. Blood samples were centrifuged at 4,000 g for 5 minutes at 4° C. to obtain plasma. The plasma samples were stored frozen at −75±15° C. until analysis.
Concentrations of the test articles in the plasma samples were analyzed using a LC-MS/MS method. […] The pharmacokinetic parameters of test articles were calculated using a non-compartmental approach with Phoenix™ WinNonlin®6.1.
The following pharmacokinetic parameters were calculated, whenever possible from the plasma concentration versus time data: • IV administration: T1/2, C0, AUClast, AUCinf, MRTinf, CI, Vss, Number of Points for Regression. • SC administration: Tmax, Cmax, AUClast, AUCinf, MRTinf, F, Number of Points for Regression.

| SMILES | EC50 [1] [nM] | Time taken to detect increase in fluorescence intensity [2] [h] | Cummulative food intake (% vehicle treated intake) At 12 h (lean rats) [% vehicle treated intake] | Cummulative food intake (% vehicle treated intake) At 24 h (lean rats) [% vehicle treated intake] | Cummulative food intake (% vehicle treated intake) At 48 h (lean rats) [% vehicle treated intake] | half-life (in vivo; iv) [min] | half-life (in vivo; sc) [min] |
| --- | --- | --- | --- | --- | --- | --- | --- |
| CC[C@H](C)[C@H](NC(=O)[C@H](C)NC(=O)[C@@H]1CCCN1C(=O)[C@H](Cc1ccccc1)NC(=O)[C@H](CC(N)=O)NC(=O)[C@@H]1CCCN1C(=O)[C@H](CO)NC(=O)[C@H](CO)NC(=O)[C@H](Cc1c[nH]cn1)NC(=O)[C@@H](NC(=O)[C@H](CC(C)C)NC(=O)[C@H](Cc1ccccc1)NC(=O)[C@H](CC(N)=O)NC(=O)[C@H](C)NC(=O)[C@H](CC(C)C)NC(=O)[C@H](CCCNC(=N)N)NC(=O)[C@H](CCC(N)=O)NC(=O)[C@@H](NC(=O)[C@H](C)NC(=O)[C@@H]1CSSC[C@H](NC(=O)[C@@H](N)CCCCNC(=O)CC[C@H](NC(=O)CC[C@H](NC(=O)CCCCCCCCCCCCCCCCCCC(=O)O)C(=O)O)C(=O)O)C(=O)N[C@@H](CC(N)=O)C(=O)N[C@@H]([C@@H](C)O)C(=O)N[C@@H](C)C(=O)N[C@@H]([C@@H](C)O)C(=O)N1)[C@@H](C)O)C(C)C)C(=O)N[C@@H](CC(C)C)C(=O)N[C@@H](CO)C(=O)N1CCC[C@H]1C(=O)N[C@H](C(=O)N[C@@H](CC(N)=O)C(=O)N[C@H](C(=O)NCC(=O)N[C@@H](CO)C(=O)N[C@@H](CC(N)=O)C(=O)N[C@H](C(=O)N[C@@H](Cc1ccc(O)cc1)C(N)=O)[C@@H](C)O)C(C)C)[C@@H](C)O [Peptide 115] (H-K([γGlu-γGlu-C20 diacid])CNTATCATQRLANFLVHSSPNFPAILSPTNVGSNTY-NH2; disulfide 2-7; N-terminus assumed) | 22.6 | <5 | 42.4 | 41.3 | 52.2 | 894 | 1220 |
| CC[C@H](C)[C@H](NC(=O)[C@@H]1CCCN1C(=O)CNC(=O)[C@H](Cc1ccccc1)NC(=O)[C@H](CC(N)=O)NC(=O)[C@H](CC(N)=O)NC(=O)[C@H](CO)NC(=O)[C@H](CO)NC(=O)[C@H](Cc1c[nH]cn1)NC(=O)[C@@H](NC(=O)[C@H](CC(C)C)NC(=O)[C@H](Cc1ccccc1)NC(=O)[C@H](CC(N)=O)NC(=O)[C@H](C)NC(=O)[C@H](CC(C)C)NC(=O)[C@H](CCCNC(=N)N)NC(=O)[C@H](CCC(N)=O)NC(=O)[C@@H](NC(=O)[C@H](C)NC(=O)[C@@H]1CSSC[C@H](NC(=O)[C@@H](N)CCCCNC(=O)CC[C@H](NC(=O)CC[C@H](NC(=O)CCCCCCCCCCCCCCCCCCC(=O)O)C(=O)O)C(=O)O)C(=O)N[C@@H](CC(N)=O)C(=O)N[C@@H]([C@@H](C)O)C(=O)N[C@@H](C)C(=O)N[C@@H]([C@@H](C)O)C(=O)N1)[C@@H](C)O)C(C)C)C(=O)N[C@@H](CC(C)C)C(=O)N1CCC[C@H]1C(=O)N1CCC[C@H]1C(=O)N[C@H](C(=O)N[C@@H](CC(N)=O)C(=O)N[C@H](C(=O)NCC(=O)N[C@@H](CO)C(=O)N[C@@H](CCCNC(=N)N)C(=O)N[C@H](C(=O)N[C@@H](Cc1ccc(O)cc1)C(N)=O)[C@@H](C)O)C(C)C)[C@@H](C)O [Peptide 114] (H-K([γGlu-γGlu-C20 diacid])CNTATCATQRLANFLVHSSNNFGPILPPTNVGSRTY-NH2; disulfide 2-7; N-terminus assumed) | 4.87 | <5 | 42.3 | 45.1 | 53.8 | 780 | 1300 |
